Measurements reported in PMC11352108, “Anti-Biofilm and Anti-Inflammatory Properties of the Truncated Analogs of the Scorpion Venom-Derived Peptide IsCT against Pseudomonas aeruginosa” (Antibiotics, 2024).
Where no end group is shown, it is not given here.

What was measured:
sheep red blood cells = assay: Hemolytic assay; assay type: cell-based; details: for Hemolytic activity (in words): sheep erythrocytes, concentrations as high as 150 μM; for % Hemolysis, Exp.1: replicate Exp.1; for % Hemolysis, Exp.2: replicate Exp.2; for % Hemolysis, Exp.3: replicate Exp.3
Method: A hemolytic assay was carried out according to the previously described method using commercially sourced sheep red blood cells (Professional Nanomed Company Limited, Bangkok, Thailand). One hundred microliters of a 2% sheep red blood cell suspension prepared in phosphate-buffered saline (PBS) pH 7.4. was incubated for 1 h at 37 °C with 100 μL of the studied peptides (final concentration of 150 µM). After centrifugation at 1000× g for 5 min, 100 μL of supernatant was transferred to new 96-well plates, and the release of hemoglobin was monitored, measuring an optical density (OD) at 405 nm using a BioTek Synergy HT microplate reader. Red blood cells treated with PBS pH 7.4 were used as a negative control, while those treated with 1% Triton X-100 were used as a positive control. The percent hemolysis was calculated as follows:(1) % Hemolysis=OD405 nm of the test peptide−OD405 nm of negative control/OD405 nm of positive control−OD405 nm of negative control × 100

[1] = test system: P. aeruginosa PAO1 biofilms; assay: Biofilm susceptibility assay (crystal violet); assay type: cell-based, Pseudomonas aeruginosa; details: 150 μM, 24 h, 37 °C; for Decrease in P. aeruginosa biofilm biomass: 10^6 CFU/mL, OD 550 nm, compared with untreated control
Method: The effect of the truncated IsCT analogs on biofilms of P. aeruginosa was assessed using a method that was described previously. Briefly, 100 μL of the test peptides (final concentration, 150 μM) was added to each well of a 96-well microtiter plate (Nunc^TM, Roskilde, Denmark). Then, an aliquot of P. aeruginosa PAO1 culture was added to each well to obtain a final concentration of 10^6 CFU/mL. The bacterial culture alone was included as an untreated control. Following a 24-h incubation at 37 °C, unattached planktonic cells were discarded, and the wells were carefully washed twice with PBS with a pH of 7.4. Thereafter, biofilm biomasses were quantified by 0.1% crystal violet staining. After excess stains were discarded, the wells were washed with PBS pH 7.4 and left to air dry for 2 h at 37 °C. The biofilm biomass was subsequently dissolved by the addition of 30% acetic acid, and the plates were spectrophotometrically read at 550 nm using a BioTek Synergy HT microplate reader.

P. aeruginosa biofilm = details: at 4 μM; cited from earlier work
Description: We next determined the anti-biofilm potentials of the truncated IsCT analogs against biofilms formation of P. aeruginosa. […] Antibacterials with growth-inhibitory activity may accelerate the evolutionary pressure and ultimately lead to troublesome antibiotic resistance.

[2] = sheep red blood cells, 1 h, 37 °C, peptides 150 μM (Triton X-100 1%)

## ILGKIGIKSLF [IsCT-Δ6-7]
Sheep red blood cells
  Hemolytic activity (in words): decreased hemolytic activity
Sheep red blood cells; [2]
  % Hemolysis, Exp.1: 0.00%
  % Hemolysis, Exp.2: 0.0473%
  % Hemolysis, Exp.3: 2.44%
[1]
  Decrease in P. aeruginosa biofilm biomass: 28.27%

## ILGKIKSLF [IsCT-Δ6-9]
Sheep red blood cells
  Hemolytic activity (in words): decreased hemolytic activity
Sheep red blood cells; [2]
  % Hemolysis, Exp.1: 0.38%
  % Hemolysis, Exp.2: 0.00%
  % Hemolysis, Exp.3: 1.03%
[1]
  Decrease in P. aeruginosa biofilm biomass: 26.45%

## ILGKIWIKSLF [IsCT-Δ7-8]
Sheep red blood cells
  Hemolytic activity (in words): decreased hemolytic activity
Sheep red blood cells; [2]
  % Hemolysis, Exp.1: 0.25%
  % Hemolysis, Exp.2: 2.48%
  % Hemolysis, Exp.3: 3.66%
[1]
  Anti-biofilm activity (in words): less pronounced

## ILGKIWKSLF [IsCT-Δ7-9]
Sheep red blood cells
  Hemolytic activity (in words): decreased hemolytic activity
Sheep red blood cells; [2]
  % Hemolysis, Exp.1: 0.18%
  % Hemolysis, Exp.2: 0.00%
  % Hemolysis, Exp.3: 1.13%
[1]
  Anti-biofilm activity (in words): less pronounced

## Triton X-100 [reference compound]
Sheep red blood cells; 2% sheep red blood cells in PBS pH 7.4, 1 h, 37 °C, peptides 150 μM (Triton X-100 1%, positive control), OD 405 nm, mean ± SEM of independent experiments
  % Hemolysis: 100.00 ± 0.00%
Sheep red blood cells; sheep red blood cells, 1 h, 37 °C, peptides 150 μM (Triton X-100 1%), mean of 3 experiments (supplement)
  % Hemolysis, Mean: 100.00%
Sheep red blood cells; [2]
  % Hemolysis, Exp.1: 100.00%
  % Hemolysis, Exp.2: 100.00%
  % Hemolysis, Exp.3: 100.00%

## β-defensin 2: an AMP, human beta-defensin 2 (GIGDPVTCLKSGAICHPVFCPRRYKQIGTCGLPGTKCCKKP; ends and bridges not checked; cysteine pairing not given here; UniProt O15263 24-64, looked up)
P. aeruginosa biofilm
  Inhibition of P. aeruginosa biofilm production: 40%
